One experiment has as its system myélocytes circulants. The experiment in a line: Circulating myelocytes during two weeks of oral treatment, 4 days per week (Example 4, figure 11). The format is in vivo, souris. As to conditions: p.o. days 0, 1, 2, 3 and 7, 8, 9, 10; MDM 25 mg/kg, AZT 50 mg/kg or both. The procedure:
La figure 11 représente l'effet d'un traitement per os de souris pendant deux semaines consécutives (4 jours par semaine) avec l'AZT, le Muradimétide ou le mélange des deux sur le nombre des myélocytes circulants.
La figure 11 montre l'effet d'un traitement par le MDM à 25 mg/kg (X), de l'AZT à 50 mg/kg (O) et du mélange des deux (□) sur le comptage des myélocytes de souris traitées pendant 2 semaines aux jours 0, 1, 2, 3 de la première semaine et 7, 8, 9, 10 de la deuxième semaine. […] Si l'effet est surtout marqué au niveau de la première semaine, cela montre que le traitement nécessite un certain espace de temps entre les différents cycles de traitement et que des traitements répétés pourraient, le cas échéant, être utiles.

Experiment [1] relates to leucocytes circulants normaux (majoritairement neutrophiles et lymphocytes) et immatures (myélocytes). The experiment in a line: Circulating blood cell counts in mice after 4 consecutive days of i.v. Muradimétide alone (Example 1). The format is in vivo, souris. As to conditions: for Nbre de Leucocytes / Nbre de Lymphocytes / Nbre de Myélocytes / Nbre de Neutrophiles: Muradimétide 25 mg/kg i.v., 4 consecutive days. The procedure: Le tableau 1 ci-dessous représente les numérations des leucocytes, neutrophiles, lymphocytes et myélocytes en fonction du temps après traitement par le Muradimétide seul administré à la dose de 25 mg/kg. Le traitement est effectué pendant 4 jours consécutifs par injection intraveineuse.
Effet de 4 jours de traitement consécutifs des souris par voie veineuse avec le Muradimétide (25 mg/kg) sur les modifications du nombre de leucocytes circulants normaux (majoritairement neutrophiles et lymphocytes) et immatures (myélocytes).

Regarding `COC(=O)CC[C@@H](NC(=O)[C@H](C)NC(=O)[C@@H](C)O[C@H]1[C@H](O)[C@@H](CO)OC(O)[C@@H]1NC(C)=O)C(=O)OC` (stereo partly drawn) [Muradimétide, Nac-Mur-L-Ala-D-Glu-[OCH3]-OCH3], the “effet sur la mobilisation des CHS (comptage des myélocytes)” value with myélocytes circulants is listed as “effet significatif”. The “Nbre de Leucocytes” value in experiment [1] (day 0) is given as 50 ± 14° x 10^5/ml; in experiment [1] (day 2) it was 52±12 x 10^5/ml; in experiment [1] (day 3), 52 ± 17 x 10^5/ml; in experiment [1] (day 4), 52 ± 15 x 10^5/ml; in experiment [1] (day 7) it was 50±13 x 10^5/ml. For the same molecule, the “Nbre de Lymphocytes” value is 38±12 x 10^5/ml in experiment [1] (day 0); 41 ± 17 x 10^5/ml in experiment [1] (day 2); 35 ± 13 x 10^5/ml in experiment [1] (day 3); 34 ± 8 x 10^5/ml in experiment [1] (day 4); 38±10 x 10^5/ml in experiment [1] (day 7). Further, the “Nbre de Myélocytes” value is listed as 7 ± 6 x 10^4/ml in experiment [1] (day 0); 8±8 x 10^4/ml in experiment [1] (day 2); 40±5 x 10^4/ml in experiment [1] (day 3); 72 ± 27 x 10^4/ml in experiment [1] (day 4); 4 ± 4 x 10^4/ml in experiment [1] (day 7). The “Nbre de Neutrophiles” value is 11±3 x 10^5/ml in experiment [1] (day 0); 10±3 x 10^5/ml in experiment [1] (day 2); 13 ± 5 x 10^5/ml in experiment [1] (day 3); 12 ± 4 x 10^5/ml in experiment [1] (day 4); 12±4 x 10^5/ml in experiment [1] (day 7). Moreover, the “nombre de myélocytes circulants (result in words)” value in experiment [1] (Muradimétide alone 25 mg/kg i.v., days 3 and 4) is “augmentation du nombre de myélocytes circulants qui est hautement significative”.

Values taken from patent publication EP0819136B1, “MDP DERIVATIVES AND CONJUGATES HAVING HAEMATOPOIETIC FUNCTION STIMULATING ACTIVITY, AND COMPOSITIONS CONTAINING SAME” (VACSYN S.A., priority 1995, dated 1996).
